Assay results as given in patent US20260356851A1, “TRICYCLIC COMPOUNDS AND USES THEREOF” (HUTCHMED LIMITED, priority 2023, published 2026).
pIC50: −log10 of the molar value.

Tests used:
Type in all cases: cell-based
[1] = target: T1, pERK1/2 (Thr202/Tyr204), NCI-1H358 (KRAS G12C) (Homo sapiens, UniProt P01116, G12C); test: Assay of intracellular pERK1/2 (Thr202/Tyr204) phosphorylation in NCI-H358 cells (KRAS G12C); conditions: pERK1/2, 2 days, read-out: NCI-H358 (KRAS G12C) IC50
T1 construct: pERK1/2 HTRF read-out
T1 sequence (P01116 1-188 isoform P01116-2 G12C): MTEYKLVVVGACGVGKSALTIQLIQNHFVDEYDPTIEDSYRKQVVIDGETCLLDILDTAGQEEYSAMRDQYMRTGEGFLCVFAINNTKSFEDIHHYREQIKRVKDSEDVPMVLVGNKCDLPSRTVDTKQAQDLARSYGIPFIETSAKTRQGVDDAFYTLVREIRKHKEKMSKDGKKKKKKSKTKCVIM
In short: (§1)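 Cells (10000-12000/well) exposed to 3-fold compound dilutions for 2 days at 37 °C, then lysed; pERK1/2 (Thr202/Tyr204) measured by HTRF with d2 and cryptate antibodies, 665/615 nm ratio.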

[2] = target: T2, pERK1/2 (Thr202/Tyr204), PANC-1 (KRAS G121D) (Homo sapiens, UniProt P01116, G12D); test: Assay of intracellular pERK1/2 (Thr202/Tyr204) phosphorylation in PANC-1 cells (KRAS G12D); conditions: pERK1/2, 2 days, read-out: PANC-1 (KRAS G12D) IC50
T2 construct: pERK1/2 HTRF read-out
T2 sequence (P01116 1-188 isoform P01116-2 G12D): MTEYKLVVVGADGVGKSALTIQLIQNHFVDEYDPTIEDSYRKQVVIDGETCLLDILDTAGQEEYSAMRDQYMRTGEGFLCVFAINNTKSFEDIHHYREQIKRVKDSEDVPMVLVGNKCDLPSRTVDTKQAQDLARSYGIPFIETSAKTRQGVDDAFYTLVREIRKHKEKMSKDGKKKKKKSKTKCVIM
In short: as §1

[3] = target: T3, pERK1/2 (Thr202/Tyr204), NCI-1H441 (KRAS G12V) (Homo sapiens, UniProt P01116, G12V); test: Assay of intracellular pERK1/2 (Thr202/Tyr204) phosphorylation in NCI-H441 cells (KRAS G12V); conditions: pERK1/2, 2 days, read-out: NCI-H441 (KRAS G12V) IC50
T3 construct: pERK1/2 HTRF read-out
T3 sequence (P01116 1-188 isoform P01116-2 G12V): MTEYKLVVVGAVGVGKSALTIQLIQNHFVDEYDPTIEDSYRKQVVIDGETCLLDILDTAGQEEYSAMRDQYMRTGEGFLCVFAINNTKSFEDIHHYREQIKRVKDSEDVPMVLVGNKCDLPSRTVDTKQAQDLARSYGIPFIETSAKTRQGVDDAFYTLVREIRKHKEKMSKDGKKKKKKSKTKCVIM
In short: as §1

SMILES | pIC50 [1] | pIC50 [2] | pIC50 [3]
Cc1cc(N)cc(-c2nc3c4c(nc(OC[C@@]56CCCN5C[C@H](F)C6)nc4c2F)N(C(C)c2cccnn2)CCO3)c1C(F)(F)F (single isomer, unassigned) [Compound 127, 3-(4-fluoro-2-(((2R,7aS)-2-fluorotetrahydro-1H-pyrrolizin-7a(5H)-yl)methoxy)-10-((R or S)-1-(pyridazin-3-yl)ethyl)-9,10-dihydro-8H-7-oxa-1,3,6,10-tetraazacyclohepta[de]naphthalen-5-yl)-5-methyl-4-(trifluoromethyl)aniline] | < 7.00 | < 7.00 | < 7.00
[2H]C1([2H])CC[C@@]2(C([2H])([2H])Oc3nc4c5c(nc(-c6cc(O)cc(Cl)c6C6CC6)c(F)c5n3)OCCN4[C@H](C)c3cccnc3N)C[C@@H](F)CN12 (single isomer, unassigned) [Compound 130, 3-(10-((R or S)-1-(2-aminopyridin-3-yl)ethyl)-4-fluoro-2-(((2R,7aS)-2-fluorotetrahydro-1H-pyrrolizin-7a(5H)-yl-5,5-d2)methoxy-d2)-9,10-dihydro-8H-7-oxa-1,3,6,10-tetraazacyclohepta[de]naphthalen-5-yl)-5-chloro-4-cyclopropylphenyl] | < 7.00 | < 7.00 | < 7.00
[2H]C1([2H])CC[C@@]2(C([2H])([2H])Oc3nc4c5c(nc(-c6cc(O)cc(Cl)c6C6CC6)c(F)c5n3)OCCN4C(C)c3cccnc3N)C[C@@H](F)CN12 (single isomer, unassigned) [Compound 131, 3-(10-((R or S)-1-(2-aminopyridin-3-yl)ethyl)-4-fluoro-2-(((2R,7aS)-2-fluorotetrahydro-1H-pyrrolizin-7a(5H)-yl-5,5-d2)methoxy-d2)-9,10-dihydro-8H-7-oxa-1,3,6,10-tetraazacyclohepta[de]naphthalen-5-yl)-5-chloro-4-cyclopropylphenol] | 9.30 | 8.15 | 9.00
Cc1c(F)c(N)cc(-c2nc3c4c(nc(OC[C@@]56CCCN5C[C@H](F)C6)nc4c2F)N([C@H](C)c2cccnc2N)CCO3)c1C(F)(F)F (single isomer, unassigned) [Compound 137] | 10.00 | 9.05 | 9.70
Cc1c(F)c(N)cc(-c2nc3c4c(nc(OC[C@@]56CCCN5C[C@H](F)C6)nc4c2F)N(C(C)c2cccnc2N)CCO3)c1C(F)(F)F (single isomer, unassigned) [Compound 138, 3-((R or S)-1-(5-(5-amino-4-fluoro-3-methyl-2-(trifluoromethyl)phenyl)-4-fluoro-2-(((2R,7aS)-2-fluorotetrahydro-1H-pyrrolizin-7a(5H)-yl)methoxy)-8,9-dihydro-10H-7-oxa-1,3,6,10-tetraazacyclohepta[de]naphthalen-10-yl)ethyl)pyridin-2-amine] | 7.89 | 7.52 | 7.77
CC(c1cccnc1N)N1CCOc2nc(-c3cc(N)c(F)cc3C(F)(F)F)c(F)c3nc(OC[C@@]45CCCN4C[C@H](F)C5)nc1c23 (single isomer, unassigned) [Compound 144, 3-((R or S)-1-(5-(5-amino-4-fluoro-2-(trifluoromethyl)phenyl)-4-fluoro-2-(((2R,7aS)-2-fluorotetrahydro-1H-pyrrolizin-7a(5H)-yl)methoxy)-8,9-dihydro-10H-7-oxa-1,3,6,10-tetraazacyclohepta[de]naphthalen-10-yl)ethyl)pyridin-2-amine] | 9.40 | 7.77 | 8.70
CC(c1cccnc1N)N1CCOc2nc(-c3cc(N)c(F)cc3C(F)(F)F)c(F)c3nc(OC[C@@]45CCCN4C[C@H](F)C5)nc1c23 (single isomer, unassigned) [Compound 145, 3-((R or S)-1-(5-(5-amino-4-fluoro-2-(trifluoromethyl)phenyl)-4-fluoro-2-(((2R,7aS)-2-fluorotetrahydro-1H-pyrrolizin-7a(5H)-yl)methoxy)-8,9-dihydro-10H-7-oxa-1,3,6,10-tetraazacyclohepta[de]naphthalen-10-yl)ethyl)pyridin-2-amine] | 7.85 | < 7.00 | 7.29

The next lines start with the values.

pIC50 [1] | pIC50 [2] | pIC50 [3] | SMILES
< 7.00 | < 7.00 | < 7.00 | Cc1cc(N)cc(-c2nc3c4c(nc(OCC5CCOCC5)nc4c2F)N([C@@H](C)c2cccnc2N)CCO3)c1C(F)(F)F (single isomer, unassigned) [Compound 118, (R or S)-3-(1-(5-(5-amino-3-methyl-2-(trifluoromethyl)phenyl)-4-fluoro-2-((tetrahydro-2H-pyran-4-yl)methoxy)-8,9-dihydro-10H-7-oxa-1,3,6,10-tetraazacyclohepta[de]napthalen-10-yl)ethyl)pyridin-2-amine]
10.00 | 9.00 | 9.52 | [2H]C1([2H])CC[C@@]2(C([2H])([2H])Oc3nc4c5c(nc(-c6cc(N)c(F)c(C)c6C(F)(F)F)c(F)c5n3)OCCN4C(C)c3cccnc3N)C[C@@H](F)CN12 (single isomer, unassigned) [Compound 124, 3-((R or S)-1-(5-(5-amino-4-fluoro-3-methyl-2-(trifluoromethyl)phenyl)-4-fluoro-2-(((2R,7aS)-2-fluorotetrahydro-1H-pyrrolizin-7a(5H)-yl-5,5-d2)methoxy-d2)-8,9-dihydro-10H-7-oxa-1,3,6,10-tetraazacyclohepta[de]naphthalen-10-yl)ethyl)pyridin-2-amine]
7.92 | 7.24 | 7.40 | [2H]C1([2H])CC[C@@]2(C([2H])([2H])Oc3nc4c5c(nc(-c6cc(N)c(F)c(C)c6C(F)(F)F)c(F)c5n3)OCCN4[C@@H](C)c3cccnc3N)C[C@@H](F)CN12 (single isomer, unassigned) [Compound 125, 3-((R or S)-1-(5-(5-amino-4-fluoro-3-methyl-2-(trifluoromehtyl)phenyl)-4-fluoro-2-(((2R,7aS)-2-fluorotetrahydro-1H-pyrrolizin-7a(5H)-yl-5,5-d2)methoxy-d2)-8,9-dihydro-10H-7-oxa-1,3,6,10-tetraazacyclohepta[de]naphthalen-10-yl)ethyl)pyridin-2-amine]
9.40 | 7.85 | 9.00 | [2H]C([2H])(Oc1nc2c3c(nc(-c4cc(N)cc(C)c4C(F)(F)F)c(F)c3n1)OCCN2C(C)c1cccnc1N)[C@@H]1C[C@@H](F)CN1C([2H])([2H])[2H] (single isomer, unassigned) [Compound 132, 3-((R or S)-1-(5-(5-amino-3-methyl-2-(trifluoromethyl)phenyl)-4-fluoro-2-(((2S,4R)-4-fluoro-1-(methyl-d3)pyrrolidin-2-yl)methoxy-d2)-8,9-dihydro-10H-7-oxa-1,3,6,10-tetraazacyclohepta[de]naphthalen-10-yl)ethyl)pyridin-2-amine]
8.52 | < 7.00 | 8.00 | [2H]C([2H])(Oc1nc2c3c(nc(-c4cc(N)cc(C)c4C(F)(F)F)c(F)c3n1)OCCN2C(C)c1cccnc1N)[C@@H]1C[C@@H](F)CN1C([2H])([2H])[2H] (single isomer, unassigned) [Compound 133, 3-((R or S)-1-(5-(5-amino-3-methyl-2-(trifluoromethyl)phenyl)-4-fluoro-2-(((2S,4R)-4-fluoro-1-(methyl-d3)pyrrolidin-2-yl)methoxy-d2)-8,9-dihydro-10H-7-oxa-1,3,6,10-tetraazacyclohepta[de]naphthalen-10-yl)ethyl)pyridin-2-amine]
< 7.00 | < 7.00 | < 7.00 | [2H]C([2H])(Oc1nc2c3c(nc(-c4cc(O)cc(Cl)c4C4CC4)c(F)c3n1)OCCN2[C@H](C)c1cccnc1N)[C@@H]1C[C@@H](F)CN1C([2H])([2H])[2H] (single isomer, unassigned) [Compound 142, 3-(10-((R or S)-1-(2-aminopyridin-3-yl)ethyl)-4-fluoro-2-(((2S,4R)-4-fluoro-1-(methyl-d3)pyrrolidin-2-yl)methoxy-d2)-9,10-dihydro-8H-7-oxa-1,3,6,10-tetraazacyclohepta[de]naphthalen-5-yl)-5-chloro-4-cyclopropylphenyl]
9.30 | 7.68 | 8.70 | [2H]C([2H])(Oc1nc2c3c(nc(-c4cc(O)cc(Cl)c4C4CC4)c(F)c3n1)OCCN2[C@@H](C)c1cccnc1N)[C@@H]1C[C@@H](F)CN1C([2H])([2H])[2H] (single isomer, unassigned) [Compound 143, 3-(10-((R or S)-1-(2-aminopyridin-3-yl)ethyl)-4-fluoro-2-(((2S,4)-4-fluoro-1-(methyl-d3)pyrrolidin-2-yl)methoxy-d2)-9,10-dihydro-8H-7-oxa-1,3,6,10-tetraazacyclohepta[de]naphthalen-5-yl)-5-chloro-4-cyclopropylphenol]
9.70 | 8.70 | 9.30 | [2H]C1([2H])CN(C(C)c2cccnc2N)c2nc(OC[C@@]34CCCN3C[C@H](F)C4)nc3c(F)c(-c4cc(N)cc(C)c4C(F)(F)F)nc(c23)O1 (single isomer, unassigned) [Compound 153, 3-((R or S)-1-(5-(5-amino-3-methyl-2-(trifluoromethyl)phenyl)-4-fluoro-2-(((2R,7aS)-2-fluorotetrahydro-1H-pyrrolizin-7a(5H)-yl)methoxy)-8,9-dihydro-10H-7-oxa-1,3,6,10-tetraazacyclohepta[de]naphthalen-10-yl-8,8-d2)ethyl)pyridin-2-amine]
